Laboratory results from patent publication US20200270309A1, “MALEIMIDE GROUP-MODIFIED ANGIOGENESIS INHIBITOR HM-1 AND USE THEREOF” (NANJING ANJI BIOLOGICAL TECHNOLOGY CO., LTD, priority 2017, published 2020).
Read-outs that look alike come from different tables or passages of the source. Peptide text beside a SMILES is read from it. * marks the point of attachment. MaleimidoPEG4propanoyl = O=C1C=CC(=O)N1CCOCCOCCOCCOCCC(=O)*; Propanoyl(3-maleimido) = O=C1C=CC(=O)N1CCC(=O)*; X14 = O=C1C=CC(=O)N1CCOCCOCCOCCOCCOCCCCCCC(=O)*; X25 = O=C1C=CC(=O)N1CCOCCOCCOCCOCCCCC(=O)*; X69 = O=C1C=CC(=O)N1c1ccc(CCCCC(=O)*)cc1; X35 = O=C1C=CC(=O)N1CCOCCOCCOCCOCC(=O)*; X78 = O=C1C=CC(=O)N1c1ccc(CCCC(=O)*)cc1; X16 = O=C1C=CC(=O)N1CCOCCOCCCCCCC(=O)*; X31 = O=C1C=CC(=O)N1CCOCCOCCOCC(=O)*; X21 = O=C1C=CC(=O)N1CCOCCCCCCC(=O)*; X30 = O=C1C=CC(=O)N1CCOCCOCC(=O)*; X45 = O=C1C=CC(=O)N1CCCCC(=O)*

Assay: Half-lives and pharmacokinetic parameters of polypeptides vs HM-1
Parameters: AUC0-∞: concentration or dose not given beside the values
Conditions: in vivo
[1] = read-out: T1/2β (half-life) (converted)

Structure (SMILES)	AUC(0-inf)	MRT inf	clearance	half-life (T1/2β (half-life))	AUC(0-inf) (read-out: AUC0-∞)	clearance (read-out: CL (converted))	MRT inf (read-out: MRT0-∞)	half-life [1]	AUC0-∞
C[C@H](NC(=O)CNC(=O)[C@H](CCCNC(=N)N)NC(=O)COCCOCCOCCOCCN1C(=O)C=CC1=O)C(=O)N[C@@H](CC(=O)O)C(=O)N[C@@H](CCCNC(=N)N)C(=O)N[C@@H](C)C(=O)NCC(=O)NCC(=O)NCC(=O)NCC(=O)N[C@@H](CCCNC(=N)N)C(=O)NCC(=O)N[C@@H](CC(=O)O)C(=O)O [X70] (X35-RGADRAGGGGRGD-OH)	28000 ± 8160 ng·h/mL	50.2 ± 10.5 h	0.595 mL/min/kg	34.76 ± 0.26 h					
C[C@H](NC(=O)CNC(=O)[C@H](CCCNC(=N)N)NC(=O)CCOCCOCCOCCOCCN1C(=O)C=CC1=O)C(=O)N[C@@H](CC(=O)O)C(=O)N[C@@H](CCCNC(=N)N)C(=O)N[C@@H](C)C(=O)NCC(=O)NCC(=O)NCC(=O)NCC(=O)N[C@@H](CCCNC(=N)N)C(=O)NCC(=O)N[C@@H](CC(=O)O)C(=O)O [X71] (MaleimidoPEG4propanoyl-RGADRAGGGGRGD-OH)	28300 ± 8140 ng·h/mL	50.7 ± 13.4 h	0.588 mL/min/kg	35.13 ± 0.34 h					
CC[C@H](C)[C@H](NC(=O)[C@H](Cc1c[nH]cn1)NC(=O)[C@H](CCC(N)=O)NC(=O)[C@H](CCCNC(=N)N)NC(=O)CCN1C(=O)C=CC1=O)C(=O)N[C@@H](Cc1ccccc1)C(=O)N1CCC[C@H]1C(=O)N[C@@H](CO)C(=O)N[C@@H](Cc1c[nH]c2ccccc12)C(=O)N[C@@H](Cc1c[nH]c2ccccc12)C(=O)N[C@@H](Cc1ccccc1)C(=O)N[C@@H](Cc1c[nH]c2ccccc12)C(=O)N[C@@H](Cc1ccc(O)cc1)C(=O)N[C@@H](Cc1ccc(O)cc1)C(=O)N1CCC[C@H]1C(=O)N[C@@H](CC(=O)O)C(=O)N[C@@H](CCCNC(=N)N)C(=O)N[C@@H](CC(C)C)C(=O)N[C@@H](CCCCN)C(=O)N[C@@H](CCSC)C(=O)N[C@@H](CCCNC(=N)N)C(=O)NCC(=O)N[C@@H](CC(=O)O)C(=O)O [P3] ({Propanoyl(3-maleimido)}-RQHIFPSWWFWYYPDRLKMRGD-OH; C-terminus assumed)								38.89 ± 0.3 h	0.0319 ± 0.0076 mg/L/h
C[C@H](NC(=O)CNC(=O)[C@H](CCCNC(=N)N)NC(=O)CCCCCCOCCOCCOCCOCCOCCN1C(=O)C=CC1=O)C(=O)N[C@@H](CC(=O)O)C(=O)N[C@@H](CCCNC(=N)N)C(=O)N[C@@H](C)C(=O)NCC(=O)NCC(=O)NCC(=O)NCC(=O)N[C@@H](CCCNC(=N)N)C(=O)NCC(=O)N[C@@H](CC(=O)O)C(=O)O [X82] (X14-RGADRAGGGGRGD-OH)	25700 ± 7220 ng·h/mL	46 ± 13.6 h	0.648 mL/min/kg	31.9 ± 0.35 h					
C[C@H](NC(=O)CNC(=O)[C@H](CCCNC(=N)N)NC(=O)CCN1C(=O)C=CC1=O)C(=O)N[C@@H](CC(=O)O)C(=O)N[C@@H](CCCNC(=N)N)C(=O)N[C@@H](C)C(=O)N[C@@H](CCC(=O)O)C(=O)N[C@@H](C)C(=O)N[C@@H](C)C(=O)N[C@@H](C)C(=O)N[C@@H](CCCCN)C(=O)N[C@@H](CCCNC(=N)N)C(=O)NCC(=O)N[C@@H](CC(=O)O)C(=O)O [P11] ({Propanoyl(3-maleimido)}-RGADRAEAAAKRGD-OH)					31600 ± 8230 ng·h/mL	0.528 mL/min/kg	56.5 ± 11.6 h	39.16 ± 0.31 h	
C[C@H](NC(=O)CNC(=O)[C@H](CCCNC(=N)N)NC(=O)CCCCOCCOCCOCCOCCN1C(=O)C=CC1=O)C(=O)N[C@@H](CC(=O)O)C(=O)N[C@@H](CCCNC(=N)N)C(=O)N[C@@H](C)C(=O)NCC(=O)NCC(=O)NCC(=O)NCC(=O)N[C@@H](CCCNC(=N)N)C(=O)NCC(=O)N[C@@H](CC(=O)O)C(=O)O [X73] (X25-RGADRAGGGGRGD-OH)	26700 ± 8240 ng·h/mL	47.9 ± 13.6 h	0.623 mL/min/kg	33.16 ± 0.26 h					

Now from value to compound:

AUC(0-inf)	MRT inf	clearance	half-life (T1/2β (half-life))	AUC(0-inf) (read-out: AUC0-∞)	clearance (read-out: CL (converted))	MRT inf (read-out: MRT0-∞)	half-life [1]	AUC0-∞	Structure (SMILES)
34000 ± 7830 ng·h/mL	60.9 ± 10.7 h	0.49 mL/min/kg	42.23 ± 0.27 h						C[C@H](NC(=O)CNC(=O)[C@H](CCCNC(=N)N)NC(=O)CCCCc1ccc(N2C(=O)C=CC2=O)cc1)C(=O)N[C@@H](CC(=O)O)C(=O)N[C@@H](CCCNC(=N)N)C(=O)N[C@@H](C)C(=O)NCC(=O)NCC(=O)NCC(=O)NCC(=O)N[C@@H](CCCNC(=N)N)C(=O)NCC(=O)N[C@@H](CC(=O)O)C(=O)O [X40] (X69-RGADRAGGGGRGD-OH)
32900 ± 8070 ng·h/mL	59 ± 10.1 h	0.507 mL/min/kg	40.86 ± 0.29 h						C[C@H](NC(=O)CNC(=O)[C@H](CCCNC(=N)N)NC(=O)COCCOCCN1C(=O)C=CC1=O)C(=O)N[C@@H](CC(=O)O)C(=O)N[C@@H](CCCNC(=N)N)C(=O)N[C@@H](C)C(=O)NCC(=O)NCC(=O)NCC(=O)NCC(=O)N[C@@H](CCCNC(=N)N)C(=O)NCC(=O)N[C@@H](CC(=O)O)C(=O)O [X56] (X30-RGADRAGGGGRGD-OH)
				30100 ± 7330 ng·h/mL	0.553 mL/min/kg	54 ± 10.5 h	37.44 ± 0.27 h		C[C@H](NC(=O)CNC(=O)[C@H](CCCNC(=N)N)NC(=O)CCCCN1C(=O)C=CC1=O)C(=O)N[C@@H](CC(=O)O)C(=O)N[C@@H](CCCNC(=N)N)C(=O)N[C@@H](C)C(=O)NCC(=O)NCC(=O)NCC(=O)NCC(=O)N[C@@H](CCCNC(=N)N)C(=O)NCC(=O)N[C@@H](CC(=O)O)C(=O)O [X4] (X45-RGADRAGGGGRGD-OH)
25600 ± 7550 ng·h/mL	45.7 ± 13.6 h	0.652 mL/min/kg	31.69 ± 0.28 h						C[C@H](NC(=O)CNC(=O)[C@H](CCCNC(=N)N)NC(=O)CCCCCCOCCOCCN1C(=O)C=CC1=O)C(=O)N[C@@H](CC(=O)O)C(=O)N[C@@H](CCCNC(=N)N)C(=O)N[C@@H](C)C(=O)NCC(=O)NCC(=O)NCC(=O)NCC(=O)N[C@@H](CCCNC(=N)N)C(=O)NCC(=O)N[C@@H](CC(=O)O)C(=O)O [X61] (X16-RGADRAGGGGRGD-OH)
32300 ± 7650 ng·h/mL	57.7 ± 13.3 h	0.517 mL/min/kg	39.97 ± 0.31 h						C[C@H](NC(=O)CNC(=O)[C@H](CCCNC(=N)N)NC(=O)COCCOCCOCCN1C(=O)C=CC1=O)C(=O)N[C@@H](CC(=O)O)C(=O)N[C@@H](CCCNC(=N)N)C(=O)N[C@@H](C)C(=O)NCC(=O)NCC(=O)NCC(=O)NCC(=O)N[C@@H](CCCNC(=N)N)C(=O)NCC(=O)N[C@@H](CC(=O)O)C(=O)O [X63] (X31-RGADRAGGGGRGD-OH)
27200 ± 7640 ng·h/mL	48.8 ± 11.2 h	0.612 mL/min/kg	33.83 ± 0.25 h						C[C@H](NC(=O)CNC(=O)[C@H](CCCNC(=N)N)NC(=O)CCCCCCOCCN1C(=O)C=CC1=O)C(=O)N[C@@H](CC(=O)O)C(=O)N[C@@H](CCCNC(=N)N)C(=O)N[C@@H](C)C(=O)NCC(=O)NCC(=O)NCC(=O)NCC(=O)N[C@@H](CCCNC(=N)N)C(=O)NCC(=O)N[C@@H](CC(=O)O)C(=O)O [X54] (X21-RGADRAGGGGRGD-OH)
32800 ± 7110 ng·h/mL	58.8 ± 13.1 h	0.508 mL/min/kg	40.73 ± 0.28 h						C[C@H](NC(=O)CNC(=O)[C@H](CCCNC(=N)N)NC(=O)CCCc1ccc(N2C(=O)C=CC2=O)cc1)C(=O)N[C@@H](CC(=O)O)C(=O)N[C@@H](CCCNC(=N)N)C(=O)N[C@@H](C)C(=O)NCC(=O)NCC(=O)NCC(=O)NCC(=O)N[C@@H](CCCNC(=N)N)C(=O)NCC(=O)N[C@@H](CC(=O)O)C(=O)O [X39] (X78-RGADRAGGGGRGD-OH)
